# Reference: patent US20080089860A1, “Therapeutic compositions and methods useful in treating cancer” (priority 2006, published 2008)
# Entries after “also recorded” stand apart in the source; their conditions may differ.
# Assays:
# DU145 cells = assay: DU145 prostate cancer cell growth, MTT assay; assay type: cell-based, human; conditions: single agent, 50 μg/ml and 100 μg/ml
# Description: (§1) For cell proliferation assays, cells were grown in 10% FCS culture medium containing various amounts of IFNs and/or sodium stibogluconate in 96 well plates and cultured at 37° C. for 3 or 6 days as indicated. The numbers of viable cells in proliferation assays were determined by MTT assays as described in Phatak et al., J. Immunol. 167, 3391 (2001).
# (§2) NIH3T3 (Yi, et al., Blood 85, 87 (1995)), WM9 (Forsberg, et al., Proc. Nat. Acad. Sci. USA 90, 393 (1993)), DU145 (Mickey, et al., Cancer Res. 37, 4049 (1977)), LoVo (Drewinko, et al., Cancer Res. 36, 467 (1976)), HEY (Buick, et al., Cancer Res. 45, 3668 (1985)), U251 (Yoshida, et al., Cancer 50, 410 (1982)), A549 (Giard, et al., J. Natl. Cancer Inst. 51, 1417 (1973)) and SK-N-SH (Helson, et al., Cancer Res. 35, 2594 (1975)) cell lines have been described and were cultured in RPMI 1640 supplemented with 10% fetal calf serum (FCS). For measurement of sodium stibogluconate effects on cell growth in vitro, cells were cultured in the absence (−) or presence (+) of various amounts of sodium stibogluconate for 6 days with viable cells quantified by MTT assays (Mosmann, J. Immunol. Methods 65, 55 (1983)). Percentages of growth inhibition by sodium stibogluconate were calculated (.+−.x %).
# MDA231 cells = assay: MDA231 breast cancer cell growth, MTT assay; assay type: cell-based, human; conditions: single agent, 50 μg/ml and 100 μg/ml
# Description: as §1
# [1] = tested on: Jak2/Stat5 and cellular protein tyrosine phosphorylation in Baf3 cells; assay: Cellular protein phosphorylation and Western blotting in Baf3 cells; assay type: cell-based, murine
# Description: For induction of cellular protein phosphorylation by sodium stibogluconate or pervanadate, Baf3 cells were incubated in 0.1% FCS-RPMI 1640 medium at 37° C. for 16 hours. The cells were then washed twice in RPMI 1640 medium and incubated with sodium stibogluconate or pervanandate (0.1 mM) for various times prior to termination by lysing cells in cold lysis buffer (50 mM Tris, pH 7.4; 150 mM NaCl; 0.2 mM Na3VO4; 20 mm NaF; 1% Nonidet P-40; 2 mM PMSF; 20 µg/ml of Aprotinin and 1 mM of sodium molybdic acid). To determine the effect of sodium stibogluconate or potassium antimonyl tartrate on IL-3-induced Jak/Stat phosphorylation, Baf3 cells were deprived of the growth factor for 16 hours in 0.1% FCS RPMI 1640 medium and then incubated with or without sodium stibogluconate or potassium antimonyl tartrate for 10 minutes. IL-3 was next added to the cell suspension and incubated for various times. The Cells were then harvested and lysed in cold lysis buffer at 4° C. for 45 minutes. Total cell lysates (TCL) were separated in SDS-PAGE gels, blotted onto nitrocellulose membrane (Schleicher & Schuell), probed with specific antibodies and detected using an enhanced chemiluminescence kit (ECL, Amersham, Arlington Heights, Ill.).
# [2] = tested on: A549, Hey, LoVo, SK-N-SH, U251 and DU145 cell lines; assay: Growth of human cancer cell lines that express PRLs, MTT assay; assay type: cell-based; conditions: 100 μg/ml, day 6
# Description: as §2
smiles,measurement,setting,value
O.O.O.O.O.O.O.O.O.O=C([O-])[C@@H]1[O][Sb]2([O-])([O][Sb]34([OH])[O][C@H]([C@H](O)CO)[C@H]([O]3)[C@H](C(=O)[O-])[O]4)[O][C@H]([C@H](O)CO)[C@@H]1[O]2.[Na+].[Na+].[Na+] [sodium stibogluconate],DU145 cells in day 6 culture,DU145 cells,killed all cells; also recorded: complete or near complete killing
same,MDA231 cells in day 6 culture,MDA231 cells,killed all cells; also recorded: complete or near complete killing
same,induced cellular protein tyrosine phosphorylation,"[1]; Baf3 cells, in comparison with pervanadate (0.1 mM)",modest and transient
same,phosphotyrosine levels of Jak2 and Stat5 relative to cells without drug treatment,"[1]; IL-3-stimulated Baf3 cells, densitometry",about twice
same,Jak2/Stat5 tyrosine phosphorylation by drug alone,"[1]; no IL-3, 37 °C for 16 hours",failed to induce
same,cell killing of the cell lines,[2],near-complete cell killing
